Assay results published in article PMC7221154, “Cloning and Expression of Cockroach α7 Nicotinic Acetylcholine Receptor Subunit” (Frontiers in Physiology, 2020).

Assays:
Pameα7 [1] = target: T1, Pameα7 (Periplaneta americana, UniProt A0A5P8U3L1); assay: two-electrode voltage clamp, Xenopus oocytes, agonist currents; format: cell-based; details: 10 mM, -80 mV, 0.5 μM atropine, EC50 could not be calculated, unreliable (low currents)
T1 construct: cDNA in pGEM-HEJUEL injected in Xenopus laevis oocytes; homomeric receptor (pentamer by known biology)
T1 sequence (A0A5P8U3L1 42-518): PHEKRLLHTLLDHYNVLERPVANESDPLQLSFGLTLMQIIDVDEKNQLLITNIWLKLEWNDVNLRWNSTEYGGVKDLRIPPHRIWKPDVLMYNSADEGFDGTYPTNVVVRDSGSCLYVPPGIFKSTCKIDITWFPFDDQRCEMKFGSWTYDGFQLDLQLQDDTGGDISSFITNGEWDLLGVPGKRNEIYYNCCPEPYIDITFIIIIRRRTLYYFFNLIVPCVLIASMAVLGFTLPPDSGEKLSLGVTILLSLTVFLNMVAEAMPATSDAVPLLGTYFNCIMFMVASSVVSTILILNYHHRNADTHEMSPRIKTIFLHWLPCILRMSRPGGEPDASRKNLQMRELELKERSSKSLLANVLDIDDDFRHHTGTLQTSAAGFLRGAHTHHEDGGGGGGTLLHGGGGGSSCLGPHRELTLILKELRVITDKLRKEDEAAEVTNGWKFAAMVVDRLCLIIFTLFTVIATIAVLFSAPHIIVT

Pameα7 [2] = target: T1, Pameα7; assay: as above; format: cell-based; details: cDNA-injected oocytes without RIC-3, -80 mV, 0.5 μM atropine, 20-22 °C, normalized to 10 mM nicotine, unreliable (native currents at 5 and 10 mM nicotine)

| Compound | two-electrode voltage clamp, Xenopus oocytes, agonist currents (Pameα7 [1]) | EC50 (Pameα7 [2]) [µM] |
| --- | --- | --- |
| CC(=O)OCC[N+](C)(C)C [acetylcholine] | ACh and nicotine induced inward currents | – |
| CN1CCC[C@H]1c1cccnc1 [nicotine] | – | 790 |
